Laboratory results reported in patent US9328078B2, “Benzofurazan anti-amyloid compounds and methods” (Treventis Corporation, priority 2012, dated 2016).

What was measured:
Aβ40 = Aβ40 (Homo sapiens, UniProt P05067); test: kinetic ThT assay for Aβ aggregation; type: biochemical; conditions: for inhibition at 5 µM: 80 h, compound 5 μm, read-out: % inhib Aβ 40 (5 μm); for inhibition at 10 µM: compound 10 μM, read-out: % inhib Aβ 40 10 μM
Experimental: Aβ40 (1.0 mg) was pre-treated in a 1.5 mL microfuge tube with HFIP (1 mL) and sonicated for 20 min to disassemble any pre-formed Aβ aggregates. The HFIP was removed with a stream of argon and the Aβ dissolved in Tris base (5.8 mL, 20 mM, pH˜10). The pH was adjusted to 7.4 with concentrated HCl (˜10 μL) and the solution filtered using a syringe filter (0.2 μm) before being used.
The kinetic ThT assay for AP aggregation is similar to that of Chalifour et al (Chalifour et al, 2003, J. Biol. Chem. 278:34874-81). Briefly, pre-treated Aβ40 or Aβ42 (40 μM in 20 mM Tris, pH 7.4) was diluted with an equal volume of 8 μM Thioflavin T (ThT) in Tris (20 mM, pH 7.4, 300 mM NaCl). Aliquots of Aβ/ThT (200 μL) were added to wells of a black polystyrene 96-well plate, followed by 2 μL of a compound in DMSO (variable concentration), or DMSO alone (controls). Incubations were performed in triplicate and were taken to contain 20 μM Aβ, various concentration of compound in 20 mM Tris, pH 7.4, 150 mM NaCl, 1% DMSO. Plates were covered with clear polystyrene lids and incubated at 37° C. in a Tecan Genios microplate reader.
Fluorescence readings (λex=450 nm, λem=480 nm) were taken every 15 min., after first shaking at high intensity for 15 s and allowing to settle for 10 s before each reading. Active compounds attenuated the increase in fluorescence over time that occurred in controls. In FIGS. 1-7, the time this procedure was performed extended to 80 hours (rightmost part of X-axis), at which point fluorescence increase generally reached an asymptote. Applying a definition of DMSO control at 80 hr as 100% aggregation (0% inhibition) and DMSO control at 0 hr as 0% aggregation (100% inhibition), a % inhibition score where higher is better can be calculated for a given concentration of compound. By repeating this procedure over several concentrations, a […] (IC50) can be measured, as is given in the table below for some compounds.
Data is summarized in the table below; numbers given in parenthesis are the values in that particular experiment for compound ID 1027, given as the first entry in this table for comparison.

Biotin-Aβ(1-42) = target: T1, Biotin-Aβ(1-42) (Homo sapiens, UniProt P05067); test: Biotin-Aβ(1-42) oligomeric assay; type: biochemical; conditions: inhibition of oligomer formation at 25 uM, 30 minutes; higher = more inhibition
T1 construct: Biotin-Aβ(1-42) (AnaSpec) at 0.2 mg/ml in hexafluoroisopropanol (HFIP); purchased AnaSpec
Experimental: The following assay was adapted from H. LeVine III. Biotin-avidin interaction-based screening assay for Alzheimer's β-peptide oligomer inhibitors, Anal. Biochem. 356 (2006) 265-272 and A. Frey, B. Meckelein, D. Externest, M. A. Schmidt A stable and highly sensitive 3,3′,5,5′-tetramethylbenzidine-based substrate reagent for enzyme-linked immunosorbent assays, J. Immunol. Methods 233 (2000) 47-56.
Biotin-Aβ(1-42) (AnaSpec) at 0.2 mg/ml in hexafluoroisopropanol (HFIP) was further diluted in 20 volumes of HFIP, which was then evaporated under a stream of argon. 20 volumes of trifluoroacetic acid was added and let rest for 10 minutes, then evaporated under a stream of argon. Another 20 volumes of HFIP was added and evaporated under a stream of argon. Biotin-Aβ(1-42) was brought to a final concentration of 2.3 mg/ml in DMSO. Oligomer formation was initiated in 96 well round bottom polypropylene plates by diluting the prepared biotin-Aβ(1-42) 50× in 20 mM sodium phosphate pH 7.5, 150 mM NaCl in the presence of vehicle or compound. Oligomer formation was halted after 30 minutes by the addition of 50 μl/well of 0.3% Tween-20.
96 well Costar high-binding microplates were coated overnight at +4° C. with 50 μl/well of 1 ug/ml NeutrAvidin (ThermoScientific) in 10 mM sodium phosphate, pH 7.5. Plates were blocked for 2 hours at room temperature with 200 μl/well 20 mM sodium phosphate pH 7.5, 150 mM NaCl, 0.1% Tween-20. The oligomer preparation was transferred at 50 μl/well to the blocked plate and incubated for 2 hours at room temperature with shaking at 150 rpm. The plate was then washed three times with 200 μl/well 20 mM tris-HCl pH 7.5, 34 mM NaCl, 0.1% Tween-20 (TBS-T). Streptavidin-HRP (Rockland Immunochemicals) [1:20,000] in 20 mM sodium phosphate pH 7.5, 150 mM NaCl, 0.1% Tween-20 was added at 50 μl/well and incubated in the dark at room temperature for 1 hour with shaking at 150 rpm. The plate was washed three times with 200 μl/well of TBS-T. Tetramethylbenzidine/H2O2 substrate was prepared by mixing 250 μl of 41 mM 3,3′,5,5′-tetramethylbenzidine, 8.2 mM tetrabutylammonium borohydride in dimethylacetamide with 10 ml of 205 mM K3 citrate pH 4.0, 3.075 mM H2O2 and incubating for 15 minutes at room temperature. Prepared substrate solution was added at 100 μl/well and the reaction was allowed to proceed for 15 minutes, after which it was terminated by the addition of 100 μl/well of 1% H2SO4. The OD450nm was determined using a Tecan Infinite F200 plate reader.

[1] = DMSO control at 80 hr = 0% inhibition, parenthesis = compound 1027

Sequence of Aβ40 (P05067 672-711 limits assumed, species assumed): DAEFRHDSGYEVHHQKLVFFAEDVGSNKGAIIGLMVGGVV
T1 sequence (P05067 672-713 limits assumed): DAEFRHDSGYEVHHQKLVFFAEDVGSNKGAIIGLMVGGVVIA

Structure (SMILES) | inhibition at 5 µM (Aβ40; [1]) [%] | IC50 (Aβ40; ThT fluorescence, 20 μM Aβ, 37° C., up to 80 hr, parenthesis = compound 1027 in same experiment, read-out: IC50 A β 1-40) [µM] | inhibition at 10 µM (Aβ40; [1]) [%] | inhibition at 20 µM (Aβ40; compound 20 μM, DMSO control at 80 hr = 0% inhibition, parenthesis = compound 1027, read-out: % inhib. A β 40 (20 μM)) [%] | inhibition at 25 µM (Biotin-Aβ(1-42)) [%]
OC(c1cccc(-c2cc(N3CCC(N4CCCC4)CC3)c3nonc3c2)c1)C(F)(F)F (stereo not drawn) [TRV-1387] | 40 | 5.76 | 52 | 78 | 75
CC(C)(O)C1CN(c2cc(-c3cccc(C(O)C(F)(F)F)c3)cc3nonc23)C1 (stereo not drawn) [TRV-1435] | 52 | – | 66 | – | 29
OC1CCN(c2cc(-c3cccc(C(O)C(F)(F)F)c3)cc3nonc23)C1 (stereo not drawn) [TRV-1448] | 45 | – | 55 | – | -23
CC(C)(O)[C@@H]1CCCN1c1cc(-c2cccc(C(O)C(F)(F)F)c2)cc2nonc12 (stereo partly drawn) [TRV-1449] | 55 | – | 72 | – | -3
OC[C@@H]1CCCN1c1cc(-c2cccc(C(O)C(F)(F)F)c2)cc2nonc12 (stereo partly drawn) [TRV-1450] | 57 | – | 79 | – | 32
CC(O)C1CN(c2cc(-c3cccc(C(O)C(F)(F)F)c3)cc3nonc23)C1 (stereo not drawn) [TRV-1451] | 54 | – | 73 | – | 4
OC(c1cccc(-c2cc(N3CCC[C@H]3CN3CCCC3)c3nonc3c2)c1)C(F)(F)F (stereo partly drawn) [TRV-1452] | 50 | – | 63 | – | 76
OC(c1cccc(-c2cc(N3CC(CN4CCOCC4)C3)c3nonc3c2)c1)C(F)(F)F (stereo not drawn) [TRV-1455] | 41 | – | 60 | – | 29
OC(c1cccc(-c2cc(N3CC(N4CCCC4)C3)c3nonc3c2)c1)C(F)(F)F (stereo not drawn) [TRV-1456] | 36 | – | 64 | – | 3
OC(c1cccc(-c2cc(N3CC(CN4CCCC4)C3)c3nonc3c2)c1)C(F)(F)F (stereo not drawn) [TRV-1457] | 51 | – | 65 | – | 82
CN(Cc1nccs1)c1cc(-c2cccc(C(O)C(F)(F)F)c2)cc2nonc12 (stereo not drawn) [TRV-1459] | 47 | – | 62 | – | -32
CN(Cc1ccc(F)cc1)c1cc(-c2cccc(C(=O)N3CCCC3)c2)cc2nonc12 [TRV-1460] | 36 | – | 44 | – | 10
COC(C)C1CN(c2cc(-c3cccc(C(O)C(F)(F)F)c3)cc3nonc23)C1 (stereo not drawn) [TRV-1461] | 58.9 | – | 71.7 | – | -28
OC(c1cccc(-c2cc(N3CC(N4CCOCC4)C3)c3nonc3c2)c1)C(F)(F)F (stereo not drawn) [TRV-1462] | 53 | – | 48 | – | 23
CN(C)CCCN(C)c1cc(-c2cccc(C(O)C(F)(F)F)c2)cc2nonc12 (stereo not drawn) [TRV-1465] | – | – | – | – | 69
CN(C)C1CCN(c2cc(-c3cccc(C(O)C(F)(F)F)c3)cc3nonc23)CC1 (stereo not drawn) [TRV-1466] | 36.9 | – | 49 | – | 72
